Patent US20240376547A1, “ONCOLOGIC VARIATIONS ASSOCIATED WITH CANCER AND METHODS OF TREATMENT” (LINNAEUS THERAPEUTICS, INC., priority 2021, published 2024)
Entries after “also recorded” stand apart in the source; their conditions may differ.

Columns and labels:
[1] = tested on: Crizotinib resistant EML4-ALK A549 NSCLC cells; experiment: CCK-8 proliferation assay of Crizotinib naive or resistant EML4-ALK A549 NSCLC cells; format: cell-based; conditions: 4 days treatment, normalized to 0 nM control
Protocol: (§1) Cells were treated with an array of % dilutions of LNS8801 for 4 days with 4 technical replicates for each condition (500 nM, 250 nM, 125 nM, 62.5 nM, 31.25 nM, 15.63 nM, 7.81 nM, 3.91 nM, 1.95 nM, 0.98 nM and 0 nM). After 4 days, relative viable cells were determined by incubating cells with CCK-8 proliferation dye for 1 hour, and measuring absorbance at 450 nm. Relative cell numbers were calculated by subtracting baseline absorbance of the media followed by normalization to the 0 nM treated control wells.
After 4 days, relative viable cells were determined by incubating cells with CCK-8 proliferation dye for 1 hour, and measuring absorbance at 450 nm. Relative cell numbers were calculated by subtracting baseline absorbance of the media followed by normalization to the 0 nM treated control wells.

[2] = tested on: EML4-ALK A549 NSCLC cells; experiment: CCK-8 proliferation assay of parental and EML4-ALK A549 NSCLC cells; format: cell-based; conditions: EML4-ALK A549 cells compared with parental (control) A549 cells, 4 days treatment, 0.98-500 nM
Protocol: as §1, with “Parental cells and EML4-ALK A549 NSCLC cells (5,000 cells) were plated in a 96-well tissue culture plate. Cells” for “Cells”, “½” for “%”, “[…]” for “15.63”, “[…],” for “3.91 nM,”, “Incubating” for “incubating”, “hour” for “hour,”

`CC(=O)c1ccc2c(c1)[C@@H]1C=CC[C@@H]1[C@H](c1cc3c(cc1Br)OCO3)N2` [LNS8801] was tested, and the “relative viability of Crizotinib-resistant cells” value [1] was “able to effectively reduce viability; also recorded: has activity in the setting of ALK-inhibitor resistance” and the “cell viability (relative viable cells)” value [2] was “effectively reduced EML4-ALK A549 cell viability over control A549 cells; also recorded: ALK+ NSCLC cells are more sensitive to LNS8801 than isogenic controls”.
